Data reported in paper PMC6811436, “Epithelial Lining Fluid and Plasma Concentrations of Dalbavancin in Healthy Adults after a Single 1,500-Milligram Infusion” (Antimicrobial Agents and Chemotherapy, 2019).
Like-named read-outs stand apart in the source and are kept apart here.

Legend:
[1] = cited from earlier work
[2] = system: penicillin-resistant S. pneumoniae; conditions: single dose, rats with lobar pneumonia; cited from earlier work
Source text: (§1) Dalbavancin has been used off label for treatment of MRSA pneumonia in a patient treated with vancomycin who ...

S. pneumoniae [3] = conditions: single dose; immunocompetent and neutropenic rats; penicillin-susceptible and penicillin-resistant S. pneumoniae; cited from earlier work
Source text: as §1

MRSA = conditions: one patient switched from vancomycin to dalbavancin 1,500 mg; cited from earlier work
Source text: as §1

S. aureus [4] = conditions: in vivo, iv
S. aureus [5] = system: S. aureus; design: method as in earlier work; conditions: cited from earlier work
Source text: (§2) Dalbavancin is 93% protein bound in plasma ([1]), and the pharmacokinetic/pharmacodynamic (PK/PD) parameter best associated with efficacy is area under the concentratio ...

S. pneumoniae [6] = system: S. pneumoniae; design: method as in earlier work; conditions: cited from earlier work
Source text: as §2

[7] = cited from earlier work; remark: listed apart in the source
Source text: as §2

[8] = cited from earlier work; remark: listed apart in the source
Procedure: This study evaluated the PK of dalbavancin in ELF and plasma up to 7 days after a single 1,500-mg i.v. infusion in healthy Japanese subjects. Dalbavancin was detectable in bronchial ELF at the earliest time point (4 h postdose) and sustained for ≥7 days, exceeding the MIC90s of S. pneumoniae and S. aureus. While drug exposure at the site of infection is essential for antibacterial activity, the PK/PD parameter associated with efficacy for dalbavancin is AUC/MIC ([3]).

S. pneumoniae [9] = conditions: in vivo, iv
[10] = Epithelial lining fluid (ELF) concentrations by bronchial microsampling after a single 1,500-mg infusion; conditions: for Dalbavancin concn, ELF (median) / Dalbavancin concn, ELF (mean [SD]): 1,500 mg i.v., LC-MS/MS
Procedure: (§3) A phase 1 open-label, single-dose, safety, tolerability, and PK study of ELF and plasma concentrations of dalbavancin was conducted between May and June 2015 at the SOUSEIKAI Hakata Clinic in Fukuoka, Japan. The study was approved by the local institutional review board at the site. Thirty-seven healthy, nonsmoking Japanese adult subjects received a 1,500-mg dose of dalbavancin infused for 30 ± 2 min. Thirty-five subjects (5 enrolled in each of 7 cohorts) had bronchoscopy with bronchial microsampling of ELF using a microsampling probe (BC-401C; Olympus, Tokyo, Japan), as described previously ([9]), at one of seven time points from the start of dalbavancin infusion (4, 8, 12, 24, 72, 120, and 168 h). Topical lidocaine viscous was used for gargling; 4% lidocaine liquid by aerosol spray was then used for topical anesthesia in the larynx, followed by bronchoscopy, with additional 1% or 2% lidocaine applied to the vocal cords and lower airway as needed. Sedation was allowed per local standard of care. In the BMS procedure, microsampling catheter sponge probes were inserted carefully through a fiberoptic bronchoscope into the peripheral airways of the right lower lobe, with the inner probe gently in contact with the bronchial lumen for 15 s. Three unique probe samples were obtained from each subject for a specific time point. The tips of the probe samples were cut at 3 cm from the tip of each probe, and each time point sample consisted of three probes placed in a vial for analysis. Ten blood PK samples were collected into K2EDTA vacutainers from all 37 subjects up to 168 h postdose (0.5, 1, 2, 4, 8, 12, 24, 72, 120, and 168 h), and plasma was harvested for sample bioanalysis.
(§4) The dalbavancin ELF and plasma concentrations were measured using a validated liquid chromatography-tandem mass spectrometry (LC-MS/MS) method in each matrix ([14]). The bioanalytical methods were validated at Tandem Labs (West Trenton, NJ) under sponsor oversight. (Covance is the brand of Covance, Inc., and used by Tandem Labs, Inc., and NWT, Inc., wholly owned subsidiaries of Laboratory Corporation of America Holdings.) Because ELF can only be collected via invasive techniques, validation of the method in ELF was conducted in a surrogate matrix of human serum ultrafiltrate (HUF).
(§5) The plasma LC-MS/MS method was validated on an API 4000 (Sciex, Framingham, MA) using plasma protein precipitation for sample cleanup before injection for detection of the analytes of interest. Detection was carried out using positive-mode electrospray with selected reaction monitoring for the mass spectrometer operation mode. In plasma, the calibration range was validated from 0.500 to 500 μg/ml using 50 μl plasma for each analysis, with a lower limit of quantification (LLOQ) of 0.500 μg/ml. The ELF LC-MS/MS method was validated on an API 5000 (Sciex) using dilution for sample preparation before analysis. For ELF, the calibration range was validated from 0.010 to 2.00 μg/ml using 75 μl sample volume (study sample[s] consisted of ELF; and standards, blanks, and quality controls consisted of HUF in extraction solvent of 40:60 acetonitrile:water), with an LLOQ of 0.010 μg/ml. Detection was carried out using positive-mode electrospray with selected reaction monitoring for the mass spectrometer operation mode. A structural analog of dalbavancin, diethylamide of dalbavancin, was used as an internal standard in both methods in support of quantitation of dalbavancin.
(§6) Statistical analyses of safety parameters were performed using version 9.3 of SAS (SAS Institute, Inc., Cary, NC) on a LINUX operating system. Noncompartmental PK parameters based on plasma and ELF dalbavancin concentrations were determined for individual subjects, and descriptive statistics were performed using the software program Phoenix WinNonlin (version 6.2; Pharsight Corporation, Cary, NC). Plasma concentrations below the LLOQ were treated as 0 for all PK calculations.

[11] = previously established, cited from earlier work
Procedure: The bioanalysis was conducted to meet current regulated bioanalysis requirements. The sensitivity, accuracy, precision, recovery, carryover, and matrix effect were established, and study samples were analyzed within established appropriate stabilities to cover sample collection, storage, and analysis. Dalbavancin plasma sample stability has previously been established for 368 days at −20 °C and for 56 days at −70°C. Stability of dalbavancin in HUF was established for 46 days at −70 °C. Plasma (370 samples) and ELF (35 samples; samples for each ELF time point collected on 3 BMS probes and analy ...

[12] = Plasma pharmacokinetics after a single 1,500-mg i.v. dalbavancin infusion, phase 1 study; conditions: for Dalbavancin concn, calculated unbound plasma (median): 1,500 mg i.v.
Procedure: as §3, §4, §5, §6

[13] = Safety and tolerability in the phase 1 study; format: in vivo, human; conditions: 37 subjects; 1,500 mg i.v. single dose
Source text: Key inclusion criteria were age between 20 and 55 years and body mass index (BMI) between 18 and 30 kg/m^2. […] Subjects were assigned to cohorts on a first-come, first-served basis. Safety data were collected at each visit (screening [days −28 to −3], baseline [days −3 to −1], and days 1, 2, 4, 6, and 8 to 9) and included adverse events, physical examination, chemistry and hematology assessments (screening/baseline, day 8 to 9), and chest X ray (at screening, to exclude subjects with lung disease, and on the day after BMS sampling).

[14] = 8 healthy subjects, 1,500 mg dalbavancin, ref Allergan, data on file
[15] = 1,500 mg i.v. single dose, bronchial microsampling
[16] = 8 h, bronchial microsampling, 5 subjects
[17] = 12 h, bronchial microsampling, 5 subjects
[18] = 24 h, bronchial microsampling, 5 subjects
[19] = 72 h, bronchial microsampling, 5 subjects
[20] = 120 h, bronchial microsampling, 5 subjects

CN[C@H]1C(=O)N[C@@H]2Cc3ccc(cc3)Oc3cc4cc(c3O[C@@H]3O[C@H](C(=O)O)[C@@H](O)[C@H](O)[C@H]3NC(=O)CCCCCCCCC(C)C)Oc3ccc(cc3Cl)[C@@H](O)[C@@H]3NC(=O)[C@H](NC(=O)[C@@H]4NC(=O)[C@@H](NC2=O)c2cc(cc(O)c2Cl)Oc2cc1ccc2O)c1ccc(O)c(c1)-c1c(O[C@H]2O[C@H](CO)[C@@H](O)[C@H](O)[C@@H]2O)cc(O)cc1[C@@H](C(=O)NCCCN(C)C)NC3=O [Dalbavancin]
solubility in saline [1]: not soluble in saline
lung bacterial load [2]: significant reduction in the lung bacterial load
bacterial counts in the lungs (S. pneumoniae [3]): reduction of bacterial counts observed in the lungs
MRSA in sputum cultures (MRSA): subsequent clearance of MRSA in sputum cultures
time ELF levels exceeded the MIC90 of S. aureus (S. aureus [4]): ≥ 7 days
effect of surfactant on in vitro activity (S. aureus [5]): does not appear to be appreciably affected by the presence of surfactant
effect of surfactant on in vitro activity (S. pneumoniae [6]): does not appear to be appreciably affected by the presence of surfactant
protein bound in plasma [7]: 93%
terminal half-life [7]: 14.4 days
time plasma concentrations maintained above the MIC90 for most Gram-positive pathogens, including S. aureus ([7]; single dose of 1,500 mg i.v.): at least 2 weeks
plasma AUC0–24, mean (SD) [8, 14]: 5,202.55 (620.05) μg · h/ml
plasma Cmax, mean (SD) [8, 14]: 467.63 (55.73) μg/ml
mean Tmax ([8]; 8 healthy subjects, 1,500 mg, range 0.5 to 0.5, ref Allergan, data on file): 30 min
median Tmax ([8]; 49 subjects, 1,500 mg dalbavancin): 37.2 min
time ELF levels exceeded the MIC90 of S. pneumoniae (S. pneumoniae [9]): ≥ 7 days
ELF AUC0–168 (median) [10, 15]: 527 µg·h/mL
ELF Cmax (median) [10, 15]: 4 µg/mL
ELF Tmax (median) [10, 15]: 72 h
Dalbavancin concn, ELF (median) ([10]; 4 h, bronchial microsampling, 5 subjects per time point): 1.9 µg/mL
Dalbavancin concn, ELF (mean [SD]) ([10]; 4 h, bronchial microsampling, 5 subjects): 1.9 (1.0) μg/ml
Dalbavancin concn, ELF (mean [SD]) [10, 16]: 3.1 (1.9) μg/ml
Dalbavancin concn, ELF (median) [10, 16]: 2.2 µg/mL
Dalbavancin concn, ELF (mean [SD]) [10, 17]: 3.6 (2.1) μg/ml
Dalbavancin concn, ELF (median) [10, 17]: 2.8 µg/mL
Dalbavancin concn, ELF (mean [SD]) [10, 18]: 2.7 (0.5) μg/ml
Dalbavancin concn, ELF (median) [10, 18]: 2.6 µg/mL
Dalbavancin concn, ELF (mean [SD]) [10, 19]: 7.3 (8.2) μg/ml
Dalbavancin concn, ELF (median) [10, 19]: 4.2 µg/mL
Dalbavancin concn, ELF (mean [SD]) [10, 20]: 11.9 (20.1) μg/ml
Dalbavancin concn, ELF (median) [10, 20]: 3.3 µg/mL
Dalbavancin concn, ELF (median) ([10]; 168 h (7 days), bronchial microsampling, 5 subjects): 2.1 µg/mL
Dalbavancin concn, ELF (mean [SD]) ([10]; 168 h, bronchial microsampling, 5 subjects): 2.0 (0.6) μg/ml
penetration of dalbavancin into ELF ([10]; ratio of AUC in ELF to unbound AUC in plasma (7% of AUC0–168)): 36%
plasma sample stability established for ([11]; −20 °C): 368 days
plasma sample stability established for ([11]; −70°C): 56 days
plasma AUC0–168, mean (SD) ([12]; 1,500 mg i.v. single dose, noncompartmental): 21,087 (2,282) μg · h/ml
Dalbavancin concn, calculated unbound plasma (median) ([12]; 4 h, calculated with 93% protein binding (unbound fraction 7%)): 20 µg/mL
Dalbavancin concn, calculated unbound plasma (median) ([12]; 8 h, calculated with unbound fraction 7%): 16 µg/mL
Dalbavancin concn, calculated unbound plasma (median) ([12]; 12 h, calculated with unbound fraction 7%): 14 µg/mL
Dalbavancin concn, calculated unbound plasma (median) ([12]; 24 h, calculated with unbound fraction 7%): 12 µg/mL
Dalbavancin concn, calculated unbound plasma (median) ([12]; 72 h, calculated with unbound fraction 7%): 8 µg/mL
Dalbavancin concn, calculated unbound plasma (median) ([12]; 120 h, calculated with unbound fraction 7%): 7 µg/mL
Dalbavancin concn, calculated unbound plasma (median) ([12]; 168 h, calculated with unbound fraction 7%): 6 µg/mL
Tmax ([12]; human, in vivo, iv): 30 min
clearance ([12]; human, in vivo, iv): 0.683 mL/min
level at 0.5 h ([12]; human, in vivo, iv, 1500 mg): 442 µg/mL
level at 1 h ([12]; human, in vivo, iv, 1500 mg): 397 µg/mL
level at 2 h ([12]; human, in vivo, iv, 1500 mg): 331 µg/mL
level at 8 h ([12]; human, in vivo, iv, 1500 mg): 222 µg/mL
level at 12 h ([12]; human, in vivo, iv, 1500 mg): 194 µg/mL
level at 24 h ([12]; human, in vivo, iv, 1500 mg): 169 µg/mL
level at 72 h ([12]; human, in vivo, iv, 1500 mg): 120 µg/mL
level at 120 h ([12]; human, in vivo, iv, 1500 mg): 94 µg/mL
clinical laboratory parameters [13]: no observed safety concerns in clinical laboratory parameters
serious AEs [13]: no serious AEs
severity of treatment-emergent AEs [13]: all were mild
subjects with at least one treatment-emergent adverse event (AE) [13]: Five
treatment-emergent AEs leading to withdrawal from study-drug therapy [13]: no treatment-emergent AEs leading to withdrawal from study-drug therapy
